Measurements from US9200008B2 (ASKA PHARMACEUTICAL CO., LTD., priority 2010, dated 2015).

The compounds below were run on human fibrosarcoma cell lines (HT1080 cells) (assay: Calculation of IC50 value, cell proliferation inhibitory activity by XTT assay, HT1080 cells (Test Example 2)). Conditions: read-out: Cell proliferation inhibitory activity (IC50 value calculated from XTT assay), concentration showing 50% inhibitory activity, human fibrosarcoma cell lines (HT1080); HT1080 cells, 72 hours culture with test substance, XTT assay.
Type: cell-based
Experimental: Human prostate cancer cell lines (PC-3 cells) and human fibrosarcoma cell lines (HT1080 cells) were seeded to 96-well microplates so as to provide a density of 1,300 cells/well and that of 3,100 cells/well, respectively. In the presence of 5% CO2 at 37° C., the PC-3 cells and the HT1080 cells were cultured for 48 hours and 24 hours, respectively. Thereafter, each one of test substances was added to each well. As a control of a medical agent, DMSO was added. After the addition, both cells were continuously cultured for 72 hours. […] The XTT labeling mixture was added to each well in an amount of 50 μL per well, and the cells were cultured for another 4 hours. A culture solution containing a test substance was used as a blank, and the absorbencies of a culture solution containing the XTT labeling mixture at a measurement wavelength (450 nm) and a control wavelength (650 nm) were measured by a plate reader. The difference between these absorbencies was evaluated as an activity of dehydrogenase of mitochondria derived from living cells. With respect to the following model formula of sigmoid curve, the convergent solution of each variable (gain, range, base and α) that minimize the residual sum of squares of the difference between these absorbencies and regressive prediction was determined, and then IC50 (=e^α) of each test substance was calculated.

Row | SMILES | IC50
1 | CCn1nnc2cc(COC(=O)Nc3sc(-c4ccc(C)cc4OC)nc3C)ccc21 [Example 9-25] | 1.64 nM

The compounds below were run on Human prostate cancer cell lines (PC-3 cells) (assay: Calculation of IC50 value, cell proliferation inhibitory activity by XTT assay, PC-3 cells (Test Example 2)). Conditions: 72 hours culture with test substance, read-out: Cell proliferation inhibitory activity (IC50 value calculated from XTT assay), concentration showing 50% inhibitory activity, human prostate cancer cell lines (PC-3).
Type: cell-based
Experimental: Human prostate cancer cell lines (PC-3 cells) and human fibrosarcoma cell lines (HT1080 cells) were seeded to 96-well microplates so as to provide a density of 1,300 cells/well and that of 3,100 cells/well, respectively. In the presence of 5% CO2 at 37° C., the PC-3 cells and the HT1080 cells were cultured for 48 hours and 24 hours, respectively. Thereafter, each one of test substances was added to each well. As a control of a medical agent, DMSO was added. After the addition, both cells were continuously cultured for 72 hours. Then, an XTT labeling reagent containing 1 mg/mL of sodium 3′-[1-(phenylaminocarbonyl)-3,4-tetrazolium]-bis(4-methoxy-6-nitro)benzenesulfonate hydrate (XTT) and an electronic coupling reagent containing 1.25 mM N-methyl dibenzopyrazine methyl sulfate (PMS) were mixed at a ratio of 50:1 to give an XTT labeling mixture. The XTT labeling mixture was added to each well in an amount of 50 μL per well, and the cells were cultured for another 4 hours. A culture solution containing a test substance was used as a blank, and the absorbencies of a culture solution containing the XTT labeling mixture at a measurement wavelength (450 nm) and a control wavelength (650 nm) were measured by a plate reader. The difference between these absorbencies was evaluated as an activity of dehydrogenase of mitochondria derived from living cells. With respect to the following model formula of sigmoid curve, the convergent solution of each variable (gain, range, base and α) that minimize the residual sum of squares of the difference between these absorbencies and regressive prediction was determined, and then IC50 (=e^α) of each test substance was calculated.
The IC50 values of the compounds represented by the formula (1) or the salts thereof on two cancer cell lines according to the method of Test Example 2 were calculated, and the results are shown in Table A.

Row | IC50 | SMILES
2 | 2.17 nM | CCn1cnc2cc(COC(=O)Nc3sc(-c4ccccc4OC)nc3C)ccc21 [Example 9-57]
3 | 6.77 nM | CCn1cc2cc(COC(=O)Nc3sc(-c4ccc(C)cc4OC)nc3C)ccc2n1 [Example 9-155]
4 | 6.35 nM | CCn1cc2cc(NC(=O)OCc3sc(-c4ccc(C)cc4C)nc3C)ccc2n1 [Example 13-53]
5 | 0.43 nM | CCn1cnc2cc(NC(=O)OCc3cc(-c4ccc(C)cc4OC)nn3C)ccc21 [Example 13-90]

Row | SMILES | IC50
6 | CCn1nnc2cc(COC(=O)Nc3sc(-c4ccc(C)cc4OC)nc3C)ccc21 [Example 9-25] | 0.81 nM

Each compound was assayed on Human prostate cancer cell lines (PC-3 cells) (assay: Measurement of cell death-inducing activity (Test Example 1)). Conditions: PC-3, 48 h, 48 hours after addition, tested at 10, 1, 0.1, 0.025 and 0.00625 μmol/L, qualitative evaluation of 10 fields, read-out: Concentration showing the cell death-inducing activity (cell death-inducing rate not less than 40%).
Type: cell-based
Outline: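 Compound treatment lasted 48 h at 10 to 0.00625 μmol/L (five levels, DMSO as control) on PC-3 cells pre-cultured 48 h at 37 °C, 5% CO2 after seeding at 1×10^5 cells/well. A cell death-inducing rate of 40% or more counted as active.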

Row | SMILES | minimal effective concentration
7 | CCn1cnc2cc(COC(=O)Nc3sc(-c4ccccc4OC)nc3C)ccc21 [Example 9-57] | 0.025 µM
8 | CCn1cc2cc(COC(=O)Nc3sc(-c4ccc(C)cc4OC)nc3C)ccc2n1 [Example 9-155] | 0.025 µM
9 | CCn1cc2cc(NC(=O)OCc3sc(-c4ccc(C)cc4C)nc3C)ccc2n1 [Example 13-53] | 0.1 µM
10 | CCn1cnc2cc(NC(=O)OCc3cc(-c4ccc(C)cc4OC)nn3C)ccc21 [Example 13-90] | 0.00625 µM
11 | COc1cc(Cl)ccc1-c1nc(C)c(NC(=O)OCc2ccc3c(c2)nc2n3CCSC2)s1 [Example 40-1, [2-(4-Chloro-2-methoxyphenyl)-4-methylthiazol-5-yl]carbamic acid 3,4-dihydro-1H-2-thia-4a,9-diazafluoren-7-ylmethyl ester] | 0.025 µM
12 | COc1cc(C)ccc1-c1nc(C)c(NC(=O)OCc2ccc3c(c2)nc2n3CCSC2)s1 [Example 40-2, [2-(2-Methoxy-4-methylphenyl)-4-methylthiazol-5-yl]carbamic acid 3,4-dihydro-1H-2-thia-4a,9-diazafluoren-7-ylmethyl ester] | 0.025 µM
13 | Cc1cc(Cl)ccc1-c1nc(C)c(NC(=O)OCc2ccc3c(c2)nc2n3CCSC2)s1 [Example 40-3, [2-(4-Chloro-2-methylphenyl)-4-methylthiazol-5-yl]carbamic acid 3,4-dihydro-1H-2-thia-4a,9-diazafluoren-7-ylmethyl ester] | 0.1 µM
14 | Cc1ccc(-c2nc(C)c(COC(=O)Nc3ccc4ncsc4c3)s2)c(C)c1 [Example 41-1, Benzothiazol-6-ylcarbamic acid 2-(2,4-dimethylphenyl)-4-methylthiazol-5-ylmethyl ester] | 10 µM
15 | Cc1ccc(-c2nc(C)c(COC(=O)Nc3ccc4sc(C)nc4c3)s2)c(C)c1 [Example 42-1, (2-Methylbenzothiazol-5-yl)carbamic acid 2-(2,4-dimethylphenyl)-4-methylthiazol-5-ylmethyl ester] | 1 µM
16 | Cc1nc2cc(NC(=O)OCc3sc(-c4ccc(Cl)cc4C)nc3C)ccc2s1 [Example 42-2, (2-Methylbenzothiazol-5-yl)carbamic acid 2-(4-chloro-2-methylphenyl)-4-methylthiazol-5-ylmethyl ester] | 1 µM
17 | Cc1cc(F)ccc1-c1nc(C)c(COC(=O)Nc2ccc3c(c2)nc2n3CCSC2)s1 [Example 43-1, (3,4-Dihydro-1H-2-thia-4a,9-diazafluoren-7-yl)carbamic acid 2-(4-fluoro-2-methylphenyl)-4-methylthiazol-5-ylmethyl ester] | 0.1 µM
18 | Cc1cc(Cl)ccc1-c1nc(C)c(COC(=O)Nc2ccc3c(c2)nc2n3CCSC2)s1 [Example 43-2] | 0.025 µM
19 | Cc1ccc(-c2nc(C)c(COC(=O)Nc3ccc4c(c3)nc3n4CCSC3)s2)c(C)c1 [Example 43-3] | 0.1 µM
20 | CCc1nc(-c2ccc(F)cc2C)sc1COC(=O)Nc1ccc2c(c1)nc1n2CCSC1 [Example 43-4] | 1 µM
21 | COc1cc(C)ccc1-c1cc(NC(=O)OCc2ccc3c(c2)nc2n3CCOC2)sn1 [Example 45-1] | 10 µM
22 | COc1cc(Cl)ccc1-c1cc(NC(=O)OCc2ccc3c(c2)ncn3C)sn1 [Example 45-2] | 1 µM
23 | CCn1cnc2cc(COC(=O)Nc3cc(-c4ccc(Cl)cc4OC)ns3)ccc21 [Example 45-3] | 10 µM
24 | CCn1ncc2cc(COC(=O)Nc3cc(-c4ccc(Cl)cc4OC)ns3)ccc21 [Example 45-4] | 10 µM
25 | COc1cc(Cl)ccc1-c1nscc1NC(=O)OCc1ccc2c(c1)ncn2C [Example 45-5] | 0.1 µM
26 | COc1ccccc1-c1nscc1NC(=O)OCc1ccc2c(c1)ncn2C [Example 45-6] | 1 µM

Row | SMILES | minimal effective concentration
27 | CCn1ncc2cc(COC(=O)Nc3csnc3-c3ccc(Cl)cc3OC)ccc21 [Example 45-7] | 0.1 µM
28 | Cn1cnc2cc(NC(=O)OCc3cc(-c4ccc(Cl)cc4Cl)ns3)ccc21 [Example 47-1] | 0.1 µM
29 | COc1ccccc1-c1cc(COC(=O)Nc2ccc3c(c2)ncn3C)sn1 [Example 47-2] | 1 µM
30 | COc1cc(C)ccc1-c1cc(COC(=O)Nc2ccc3c(c2)ncn3C)sn1 [Example 47-3] | 0.00625 µM
31 | COc1cc(Cl)ccc1-c1cc(COC(=O)Nc2ccc3c(c2)ncn3C)sn1 [Example 47-4] | 0.00625 µM
32 | COc1ccccc1-c1cc(COC(=O)Nc2ccc3c(c2)nc2n3CCCC2)sn1 [Example 47-5] | 0.1 µM
33 | COc1cc(C)ccc1-c1cc(COC(=O)Nc2ccc3c(c2)nc2n3CCCC2)sn1 [Example 47-6] | 0.025 µM
34 | COc1cc(Cl)ccc1-c1cc(COC(=O)Nc2ccc3c(c2)nc2n3CCCC2)sn1 [Example 47-7] | 0.00625 µM
35 | O=C(Nc1ccc2c(c1)nc1n2CCCC1)OCc1cc(-c2ccc(Cl)cc2Cl)ns1 [Example 47-8] | 1 µM
36 | COc1cc(Cl)ccc1-c1cc(COC(=O)Nc2ccc3c(c2)nc2n3CCOC2)sn1 [Example 47-9] | 0.00625 µM
37 | CCn1cnc2cc(NC(=O)OCc3cc(-c4ccccc4OC)ns3)ccc21 [Example 47-10] | 10 µM
38 | CCn1cnc2cc(NC(=O)OCc3cc(-c4ccc(Cl)cc4OC)ns3)ccc21 [Example 47-11] | 0.1 µM
39 | CCn1cnc2cc(NC(=O)OCc3cc(-c4ccc(Cl)cc4Cl)ns3)ccc21 [Example 47-12] | 10 µM
40 | COc1cc(Cl)ccc1-c1cc(C(=O)N/N=C/c2ccc3c(c2)ncn3C)sn1 [Example 49-1] | 0.025 µM
41 | COc1ccccc1-c1cc(C(=O)N/N=C/c2ccc3c(c2)ncn3C)sn1 [Example 49-2, 3-(2-Methoxyphenyl)isothiazole-5-carboxylic acid[1-(1-methyl-1H-benzimidazol-5-yl)methylidene]hydrazide] | 0.025 µM
42 | O=C(N/N=C/c1ccc2c(c1)nc1n2CCOC1)c1cc(-c2ccc(Cl)cc2Cl)ns1 [Example 49-3] | 10 µM
43 | COc1ccccc1-c1cc(C(=O)N/N=C/c2ccc3c(c2)nc2n3CCOC2)sn1 [Example 49-4, 3-(2-Methoxyphenyl)isothiazole-5-carboxylic acid[1-(3,4-dihydro-1H-2-oxa-4a,9-diazafluoren-7-yl)methylidene]hydrazide] | 10 µM
44 | COc1cc(Cl)ccc1-c1cc(C(=O)N/N=C/c2ccc3c(c2)nc2n3CCOC2)sn1 [Example 49-5, 3-(4-Chloro-2-methoxyphenyl)isothiazole-5-carboxylic acid[1-(3,4-dihydro-1H-2-oxa-4a,9-diaza-fluoren-7-yl)methylidene]hydrazide] | 1 µM
45 | CCn1ncc2cc(/C=N/NC(=O)c3cc(-c4ccccc4OC)ns3)ccc21 [Example 49-7, 3-(2-Methoxyphenyl)isothiazole-5-carboxylic acid[1-(1-ethyl-1H-indazol-5-yl)methylidene]hydrazide] | 1 µM
46 | CCn1ncc2cc(/C=N/NC(=O)c3cc(-c4ccc(Cl)cc4OC)ns3)ccc21 [Example 49-8] | 1 µM
